Laboratory results from patent US9616089B2, “Polymeric synthetic antidote” (Universite de Liege, priority 2013, dated 2017).

What was measured:
UFH [1] = assay: Neutralization of UFH in human plasma, aPTT test; assay type: biochemical; settings: for percentage of neutralization of UFH, mean: antidote 2 μg/mL, plasma spiked with UFH 2 μg/mL, 15 min 37°C
Method: (§1) Activated partial thromboplastin time (aPTT) and anti-Xa activity were measured on the freshly isolated plasma using respectively a coagulometer (BCT; Dade Behring—Siemens) and a Microplate reader (Anthos HT3, type 12600). STA-C.K. Prest*2 kit was used. Coatest kit was used to evaluate the concentration of low molecular weight heparin in blood plasma following the reactions depicted below: LMW Heparin+AT→[LMW Heparin·AT] [LMW Heparin·AT]+FXa(excess)→[LMW Heparin·AT·FXa] 2a. S-2222+FXa→Peptide+pNA (yellow)+FXa(residual) 2b.
All PECs were prepared by addition of 100 μL of heparin (10 μg/mL) to 300 μL of plasma. After a pre-incubation of 5 minutes at 37° C., 100 μL of a stock solution of polymers of formula (I) (10 μg/mL) was added to neutralize heparin. After 15 minutes of interaction 37° C. the aPTT analysis was performed. Anti Xa analysis was evaluated according to a similar procedure, except for the final concentrations of heparin and polymer of formula (I) which were […].
In view to assess the pharmacological activity of the polymers of formula (I) to neutralize the action of UFH, polymers of formula (I) were incubated in normal human plasma previously spiked with heparin, analysing afterwards the remaining coagulation activity of plasma using the activated partial thromboplastin time (aPTT) test. This bioassay was indeed typically used to analyse the functionality of the intrinsic pathway of the blood coagulation, using kaolin as synthetic activator of the coagulation. An incubation of 15 min at 37° C. was respected before measuring the aPPT test. The percentage of heparin neutralization in plasma (FIG. 4) was calculated using two different calibration curves of heparin in function of the group age of the donors. Indeed a difference in heparin sensitivity was noticed with aPPT test as a function of the range of age of human donors. Accordingly, two calibration curves of heparin were used, corresponding to the two categories of blood donors: group 1 (average age: 22 years) and group 2 (average age: 52 years).

UFH [2] = assay: Dose-response curve for UFH neutralization in human blood plasma, aPTT bioassay; assay type: biochemical; settings: UFH 2 μg/mL in plasma, polymer 1 to 3 μg/mL
Method: In view to assess a possible difference in affinity between polymers of formula (I) and heparin versus protamine/heparin, dose-response curves were established, corresponding to a progressive titration of heparin action by increasing concentration of the polymers of formula (I) with aPPT bioassay (FIG. 5). This in vitro study was conducted adopting a fixed plasma concentration of UFH of 2 μg/mL added before the incubation with the polymers of formula (I). The concentration of the polymers of formula (I) was varied from 1 to 3 μg/mL. The mean and standard deviations (SD) were calculated from two independent experiments performed on senior blood donors.

UFH [3] = assay: Neutralization of UFH in human plasma measuring factor Xa (chromogenic Coatest Heparin); assay type: biochemical; settings: UFH and antidote 0.4 μg/mL, human plasma 15 min 37°C
Method: as §1
Where FXa represents factor Xa and S-2222 represents Bz-Ile-Glu-(γ-OR)-Gly-Arg-pNA (CA: 59068-47-2) (SEQ ID No. 1), a chromogenic substrate cleaved by free FXa to peptide (Bz-Ile-Glu-(γ-OR)-Gly-Arg (SEQ ID No. 2)) and pNA (p-nitroaniline). AT represents antithrombin. Heparin binds to AT, causing a change in the conformation of AT to a form that binds to and sequesters the activity of FXa. Addition of a peptide that competes with AT for heparin will increase the concentration of free FXa. Thus, restoration of the activity of FXa, as indicated by the amount of S-2222 converted to peptide and pNA, provides a measure of the ability of a peptide to neutralize the anticoagulant activity of heparin (provided in technical sheet of Instrumentation Laboratory).
The assay method was calibrated using standard solutions that contain 0.1 μg/mL of AT and heparin at concentrations ranging from 0.01 to 0.07 μg/mL in buffer/normal human plasma supplied with the Coatest kit. The standard solutions were incubated at 37° C. for 3-4 minutes, after which 100 μL of bovine factor Xa (0.71 nkat) were added to 200 μL of each standard solution. The mixtures were incubated at 37° C. for 30 sec, after which 200 μL of S-2222 (0.2 μmol, 37° C.) were added and the reaction mixtures were incubated at 37° C. for exactly 3 minutes. […] The absorbance was measured at 405 nm. The ability of CLC1 and CLC2 to neutralize the anticoagulant activity of heparin was determined by addition of each polymer to heparin solution, and the assay performed as described above. […]

LMWH = assay: Neutralization of LMWH in human plasma measuring factor Xa (chromogenic Coatest Heparin); assay type: biochemical; settings: LMWH and antidote 0.4 μg/mL each, human plasma 15 min 37°C
Method: as §1, with “2b. […]” for “2b.”
The assay method was calibrated using standard solutions that contain 0.1 μg/mL of AT and heparin at concentrations ranging from 0.01 to 0.07 μg/mL in buffer/normal human plasma supplied with the Coatest kit. […] The absorbance was measured at 405 nm. The ability of CLC1 and CLC2 to neutralize the anticoagulant activity of heparin was determined by addition of each polymer to heparin solution, and the assay performed as described above.
The complexation of the synthetic polymers of formula (I) with low molecular weight heparin (LMWH) was assessed in vitro in the same experimental conditions as for UFH, thus using a concentration of heparin and polymers of formula (I) of 0.4 μg/mL. After their incubation of 15 minutes at 37° C., the remaining activity of factor Xa is recorded with the chromogenic assay Coatest Heparin.

UFH [4] = assay: Dose-response UFH neutralization in whole human blood, aPTT test; assay type: biochemical; settings: Table 4, UFH 2 μg/mL whole blood
Method: In Example 9 several (co-)polymers of formula (I) were tested for neutralization of UFH in whole blood. Dose-response curves were established adopting a fixed concentration of 2 μg/mL UFH added in whole blood collected on sodium citrate. Five minutes after this preconditioning step, UFH neutralization was conducted by adding one of the (co-)polymers listed in Table 4 to 6. The concentration of these polymers was varied from 0.5 to 4 μg/mL in—whole blood. A special care was taken during the addition of the (co-)polymer solution in view to assure a rapid and reproducible homogenization of this solution in whole blood (rapid injection of solution in whole blood, i.e. in less than 1 s), followed directly by 3 up-and-down aspirations to avoid any risk of local over-concentrations. The total dilution arising from the UHF and polymer solutions represents only 10% to avoid any interference with coagulation pathways.
After a 15 minutes incubation period performed at 37° C. under lateral agitation the aPTT test was carried out immediately afterwards in order to determine the residual UFH activity. […] The mean and standard deviations were calculated from two independent experiments performed on senior blood donors initially collected under sodium citrate.

UFH [5] = assay: Neutralization of UFH in whole blood of patients heparinized in vivo (extracorporeal circulation), aPTT test; assay type: biochemical, human
Method: In example 10, several (co-)polymers of formula (I), namely two linear homopolymers of PDMAEMA (samples CS023 and CK169) and two copolymers of PDMAEMA and PEO (samples A61 and BA003) were tested for neutralization of UFH injected on human patients subjected to ExtraCorporeal Circulation (ECC) during a cardiovascular surgical operation. According to the general practice in this clinical context, a fixed dose of 3 mg/kg of UFH is administrated to these patients by intravenous injection.
10 min after this dose injection of UFH, 40 ml of whole blood were collected from the patients. In vitro UFH neutralization was conducted less than 1 hour after blood collection adding one of the (co-)polymers listed in Table 7. The concentration of these polymers ranged from 3.4 to 45 μg/mL in whole blood. A special care was taken during the addition of (co-)polymer solutions in view to ensure a rapid and reproducible homogenization of these (co-)polymers in whole human blood (rapid injection of the solution in whole human blood, i.e. in less than 1 s), followed directly by 3 up-and-down aspirations to avoid any risk of local over-concentrations.
After a 15 minutes incubation period performed at 37° C. under lateral agitation the aPTT test was carried out immediately in order to determine the residual UFH activity. The neutralization effectiveness of the different homopolymers and copolymers and of protamine was estimated from the determination of CMax, i.e. the minimal polymer concentration giving rise to a maximum neutralization of UFH. Therapeutic index (Thind) of the (co-)polymers was established as the drug concentration window giving a pharmacological effect without impairing the coagulation pathways. The mean and standard deviations corresponding to these 3 parameters were calculated from 4 independent experiments performed on senior blood patients.

- IC50 (UFH [4]; polymer concentration leading to 50% of maximal capacity to neutralize UFH): 1.05 µg/mL
Substance: Protamine
- percentage of neutralization of heparin (UFH [1]; 15 minutes after addition of the polymers, human plasma (FIG. 4)): 75%
- percentage of neutralization of UFH, mean (UFH [1]; Group 1 donors (average age 22 years)): 75.0%
- percentage of neutralization of UFH, mean (UFH [1]; Group 2 donors (average age 52 years)): 76.1%
- concentration at the maximum of the heparin neutralization curve (UFH [2]): around 1.6 μg/mL
- percentage of inhibition of factor Xa, mean (UFH [3]; Test number 1): 88.1%
- percentage of inhibition of factor Xa, mean (UFH [3]; Test number 2): 100.0%
- mean inhibition of factor Xa (UFH [3]; mean of two independent experiments): 94.0%
- percentage of inhibition of factor Xa (inhibition of heparin), mean (LMWH): 31.0%
- CMax (UFH [4]; minimal polymer concentration giving saturation in UFH neutralization): 3.00 µg/mL
- aPTT at CMax (UFH [5]; blood of patients given 3 mg/kg UFH): 42.7 s
- CMax (UFH [5]; minimal polymer concentration giving maximum neutralization of UFH, patients given 3 mg/kg UFH): 22.5 µg/mL
- aPTT response (UFH [5]; protamine concentration of 45 μg/mL): below 70 s
